# Experimental data from US11925638B2, “Pharmaceutical composition comprising diamino heterocyclic carboxamide compound as active ingredient” (ASTELLAS PHARMA INC., priority 2014, dated 2024).
# Assays:
# [1] = system: erlotinib-resistant HCC827 subcutaneous tumor; assay: Anti-tumor evaluation (in vivo), erlotinib-resistant HCC827 subcutaneous cancer-bearing mouse model; conditions: erlotinib 12.5 mg/kg/day and/or compound A 30 mg/kg/day, QD, po; for tumor volume on the starting day of administration: baseline, measured the day before start
# Description: HCC827 cells (EGFR mutation-positive lung cancer cell line) were subcutaneously implanted to a dorsal part of an immunodeficient mouse (CB17/Icr-Prkdcscid/CrlCrlj, male, 4-week-old (Charles River Laboratories Japan, Inc.)) to prepare HCC827 subcutaneous cancer-bearing mice.
# [2] = system: phosphorylated AXL in AXL/PC9 cells; assay: Western blot of phosphorylated AXL in AXL/PC9 cells; format: cell-based, human; conditions: compound A at 100 nM, phospho-AXL antibody
# [3] = system: PC9 vec. cells; assay: Proliferation inhibition (in vitro), PC9 vec. control cells, CellTiter-Glo; format: cell-based; conditions: Homo sapiens, 96 h, 4 days culture
# Protocol: The obtained PC9/AXL cells and PC9 vec. cells were inoculated into a 384-well plate, respectively, using an RPMI 1640 medium (Sigma). On the same day, a DMSO solution of the test compound depending on the test concentration or DMSO alone was added thereto, followed by culturing at 37° C. for 4 days in the presence of 5% CO2. Thereafter, the number of cells was measured using a cell count reagent (CellTiter-Glo™ Luminescent Cell Viability Assay (Promega)).
SMILES,tumor volume on the starting day of administration [1] [mm^3],tumor decreasing effect [1],tumor volume after 12 days [1] [mm^3],AXL phosphorylation [2],IC50 [3] [nM]
"CCc1nc(C(N)=O)c(Nc2ccc(N3CCC(N4CCN(C)CC4)CC3)c(OC)c2)nc1NC1CCOCC1 [compound A, 6-ethyl-3-({3-methoxy-4-[4-(4-methylpiperazin-1-yl)piperidin-1-yl]phenyl}amino)-5-(tetrahydro-2H-pyran-4-ylamino)pyrazine-2-carboxamide]",339.2,did not show a tumor decreasing effect,739.2,completely inhibited,–
"C#Cc1cccc(Nc2ncnc3cc(OCCOC)c(OCCOC)cc23)c1 [erlotinib, reference compound]",335.8,did not show a tumor decreasing effect,–,–,108
